Results as given in the NIST ThermoML archive (doi:10.1016/j.jct.2010.10.016).

Experiment: xn = mol fraction of the nth substance listed
Conditions: 101 kPa, Liquid; for mass density: Pycnometric method; for speed of sound: Resonance method; for viscosity: Capillary tube (Ostwald / Ubbelohde) method

CCCCOCCO [2-butoxyethan-1-ol] + C[N+](=O)[O-]
Conditions	mass density [kg/m3]	speed of sound [m/s]	viscosity [mPa·s]
303.15 K, x2 = 0	–	1290.6	–
303.15 K, x2 = 0.0507	–	1289.5	–
303.15 K, x2 = 0.1001	–	1288.6	–
303.15 K, x2 = 0.2003	–	1286.3	–
303.15 K, x2 = 0.3003	–	1283.6	–
303.15 K, x2 = 0.4	938.41	–	–
303.15 K, x2 = 0.4005	–	1281.1	–
303.15 K, x2 = 0.5	955.38	–	–
303.15 K, x2 = 0.5002	–	1279.2	–
303.15 K, x2 = 0.6	975.84	1278.5	–
303.15 K, x2 = 0.7	1000.85	1279.5	–
303.15 K, x2 = 0.7999	–	1282.9	–
303.15 K, x2 = 0.8002	1032.09	–	–
303.15 K, x2 = 0.8999	1071.54	1288.9	–
303.15 K, x2 = 0.95	–	1293.2	–
303.15 K, x2 = 0.9503	1095.83	–	–
308.15 K, x2 = 0	887.83	1273.5	2.079
308.15 K, x2 = 0.05	891.97	–	–
308.15 K, x2 = 0.0501	–	–	1.967
308.15 K, x2 = 0.0507	–	1273.1	–
308.15 K, x2 = 0.0999	896.44	–	–
308.15 K, x2 = 0.1001	–	1272.2	–
308.15 K, x2 = 0.1048	–	–	1.844
308.15 K, x2 = 0.198	–	–	1.639
308.15 K, x2 = 0.2	906.69	–	–
308.15 K, x2 = 0.2003	–	1270.2	–
308.15 K, x2 = 0.3	918.65	–	–
308.15 K, x2 = 0.3003	–	1267.9	–
308.15 K, x2 = 0.3012	–	–	1.427
308.15 K, x2 = 0.3999	–	–	1.243
308.15 K, x2 = 0.4	932.71	–	–
308.15 K, x2 = 0.4005	–	1265.9	–
308.15 K, x2 = 0.4502	–	–	1.154
308.15 K, x2 = 0.4998	–	–	1.071
308.15 K, x2 = 0.5	949.47	–	–
308.15 K, x2 = 0.5002	–	1264.2	–
308.15 K, x2 = 0.5499	–	–	0.991
308.15 K, x2 = 0.5998	–	–	0.917
308.15 K, x2 = 0.6	969.67	1263.4	–
308.15 K, x2 = 0.6994	–	–	0.786
308.15 K, x2 = 0.7	994.45	1264.3	–
308.15 K, x2 = 0.7997	–	–	0.685
308.15 K, x2 = 0.7999	–	1267.3	–
308.15 K, x2 = 0.8002	1025.45	–	–
308.15 K, x2 = 0.8986	–	–	0.616
308.15 K, x2 = 0.8999	1064.77	1273.2	–
308.15 K, x2 = 0.9465	–	–	0.59
308.15 K, x2 = 0.95	–	1276.9	–
308.15 K, x2 = 0.9503	1089.08	–	–
313.15 K, x2 = 0	883.59	1257.7	1.689
313.15 K, x2 = 0.05	887.43	–	–
313.15 K, x2 = 0.0507	–	1257.4	–
313.15 K, x2 = 0.0511	–	–	1.606
313.15 K, x2 = 0.0999	891.75	–	–
313.15 K, x2 = 0.1001	–	1256.8	–
313.15 K, x2 = 0.1135	–	–	1.493
313.15 K, x2 = 0.2	901.79	–	–
313.15 K, x2 = 0.2003	–	1254.9	–
313.15 K, x2 = 0.2156	–	–	1.314
313.15 K, x2 = 0.2993	–	–	1.18
313.15 K, x2 = 0.3	913.58	–	–
313.15 K, x2 = 0.3003	–	1252.7	–
313.15 K, x2 = 0.3971	–	–	1.042
313.15 K, x2 = 0.4	927.46	–	–
313.15 K, x2 = 0.4005	–	1250.6	–
313.15 K, x2 = 0.4497	–	–	0.974
313.15 K, x2 = 0.4973	–	–	0.915
313.15 K, x2 = 0.5	943.98	–	–
313.15 K, x2 = 0.5002	–	1248.8	–
313.15 K, x2 = 0.5458	–	–	0.858
313.15 K, x2 = 0.5989	–	–	0.798
313.15 K, x2 = 0.6	963.96	1248	–
313.15 K, x2 = 0.6958	–	–	0.698
313.15 K, x2 = 0.7	988.46	1248.7	–
313.15 K, x2 = 0.7999	–	1251.4	–
313.15 K, x2 = 0.8002	1018.86	–	–
313.15 K, x2 = 0.8004	–	–	0.617
313.15 K, x2 = 0.893	–	–	0.572
313.15 K, x2 = 0.8999	1057.69	1256.3	–
313.15 K, x2 = 0.9491	–	–	0.556
313.15 K, x2 = 0.95	–	1259.5	–
313.15 K, x2 = 0.9503	1081.78	–	–
